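How tested: cells in 96-well plates exposed to compound for 48 hours at five concentrations. Abbreviation: GI50, concentration required for 50% inhibition of growth.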 Calls of active or inactive are those of the source. Rule as the data show it: active = GI50 up to about 1.1 µM and inactive = higher.
What was measured:
Experiment in all cases: DTP human tumour cell line panel, 48 h
[1] = test system: SK-MEL-2
[2] = test system: LOX IMVI
[3] = test system: SK-OV-3
[4] = test system: OVCAR-8
[5] = test system: IGROV-1
[6] = test system: HL-60
[7] = test system: CCRF-CEM
[8] = test system: SW-620
[9] = test system: HOP-92
[10] = test system: SNB-75
[11] = test system: RXF 393
[12] = test system: OVCAR-5
[13] = test system: U-251
[14] = test system: DU-145
[15] = test system: MDA-MB-231
[16] = test system: UACC-257
[17] = test system: Malme-3M
[18] = test system: SNB-19
[19] = test system: HT-29
[20] = test system: CAKI-1
[21] = test system: SK-MEL-28
[22] = test system: HCT-116
[23] = test system: MOLT-4
[24] = test system: SF-295
[25] = test system: MCF7
[26] = test system: MDA-MB-435
[27] = test system: EKVX
[28] = test system: COLO 205
[29] = test system: BT-549
[30] = test system: OVCAR-4
[31] = test system: PC-3
[32] = test system: RPMI-8226
[33] = test system: HCT-15
[34] = test system: SF-268
[35] = test system: K562
[36] = test system: NCI-H23
[37] = test system: MDA-N
[38] = test system: SR
[39] = test system: HOP-62
[40] = test system: UO-31
[41] = test system: SK-MEL-5
[42] = test system: SN12C
[43] = test system: A498
[44] = test system: M14
[45] = test system: KM12
[46] = test system: UACC-62
[47] = test system: NCI-H226
[48] = test system: OVCAR-3
[49] = test system: NCI/ADR-RES
[50] = test system: HCC 2998
[51] = test system: T47D
[52] = test system: Hs-578T
[53] = test system: NCI-H460
[54] = test system: A549
[55] = test system: 786-0
[56] = test system: NCI-H522

COC1C=C(NCC2(CO)CCC2)N=C(N)N1 (stereo unspecified)
GI50 [1]: > 100 µM (inactive)
GI50 [2]: > 100 µM (inactive)
GI50 [3]: > 100 µM (inactive)
GI50 [4]: > 100 µM (inactive)
GI50 [5]: > 100 µM (inactive)
GI50 [6]: > 100 µM (inactive)
GI50 [7]: > 100 µM (inactive)
GI50 [8]: > 100 µM (inactive)
GI50 [9]: > 100 µM (inactive)
GI50 [10]: > 100 µM (inactive)
GI50 [11]: > 100 µM (inactive)
GI50 [12]: > 100 µM (inactive)
GI50 [13]: > 100 µM (inactive)
GI50 [14]: > 100 µM (inactive)
GI50 [15]: 56.6 µM (inactive)
GI50 [16]: > 100 µM (inactive)
GI50 [17]: > 100 µM (inactive)
GI50 [18]: > 100 µM (inactive)
GI50 [19]: > 100 µM (inactive)
GI50 [20]: > 100 µM (inactive)
GI50 [21]: > 100 µM (inactive)
GI50 [22]: > 100 µM (inactive)
GI50 [23]: > 100 µM (inactive)
GI50 [24]: > 100 µM (inactive)
GI50 [25]: 95.1 µM (inactive)
GI50 [26]: > 100 µM (inactive)
GI50 [27]: > 100 µM (inactive)
GI50 [28]: > 100 µM (inactive)
GI50 [29]: > 100 µM (inactive)
GI50 [30]: > 100 µM (inactive)
GI50 [31]: > 100 µM (inactive)
GI50 [32]: > 100 µM (inactive)
GI50 [33]: > 100 µM
GI50 [34]: > 100 µM (inactive)
GI50 [35]: > 100 µM (inactive)
GI50 [36]: 24.8 µM (inactive)
GI50 [37]: > 100 µM (inactive)
GI50 [38]: > 100 µM (inactive)
GI50 [39]: > 100 µM (inactive)
GI50 [40]: > 100 µM (inactive)
GI50 [41]: > 100 µM (inactive)
GI50 [42]: > 100 µM (inactive)
GI50 [43]: 95.1 µM (inactive)
GI50 [44]: > 100 µM (inactive)
GI50 [45]: > 100 µM (inactive)
GI50 [46]: > 100 µM (inactive)
GI50 [47]: > 100 µM (inactive)
GI50 [48]: > 100 µM (inactive)
GI50 [49]: > 100 µM (inactive)
GI50 [50]: > 100 µM (inactive)
GI50 [51]: > 100 µM (inactive)
GI50 [52]: > 100 µM (inactive)
GI50 [53]: > 100 µM (inactive)
GI50 [54]: > 100 µM (inactive)
GI50 [55]: > 100 µM (inactive)
GI50 [56]: > 100 µM (inactive)

— ChEMBL document CHEMBL1201862, “PubChem BioAssay data set” (2004)
